Results: patent US8480620B2, “Coatings with tunable solubility profile for drug-coated balloon” (Abbott Cardiovascular Systems Inc., priority 2009, dated 2013)

Assay: Solubility enhancement of zotarolimus with select excipient solutions
Type: physicochemical
Details: Phosphate buffered saline; n = 3
From the text: Table 1 provides non-limiting examples of the solubility data for excipients that can be used in accordance with the disclosed subject matter:
As illustrated, in Table 1 the excipients provide for increased solubility for the cytostatic drug, zotarolimus, as compared to saline alone.

Zotarolimus Solubility: 0.53 µg/mL
Structure (SMILES): CO[C@H]1C[C@@H]2CC[C@@H](C)[C@@](O)(O2)C(=O)C(=O)N2CCCC[C@H]2C(=O)O[C@H]([C@H](C)C[C@@H]2CC[C@H](n3cnnn3)[C@H](OC)C2)CC(=O)[C@H](C)/C=C(\C)[C@@H](O)[C@@H](OC)C(=O)[C@H](C)C[C@H](C)/C=C/C=C/C=C/1C [Zotarolimus, zotarolimus]
